Test results published in patent publication US8629166B2, “5-cycloalkyl- or 5-heterocyclyl-nicotinamides” (Hoffmann-La Roche Inc., priority 2011, dated 2014).
pEC50: −log10 of the molar value.

Assays:
human CB2 receptor = biological target: T1, human CB2 receptor (Homo sapiens, UniProt P34972); assay: CB2 receptor affinity ([3H]-CP-55,940 displacement, HEK cell membranes); format: binding; conditions: displacement of [3H]-CP-55,940 at 10 μM
T1 construct: expressed in transfected cells; host or cells: human embryonic kidney (HEK) cells, Semliki Forest Virus system, membrane preparation
T1 sequence (P34972 whole entry): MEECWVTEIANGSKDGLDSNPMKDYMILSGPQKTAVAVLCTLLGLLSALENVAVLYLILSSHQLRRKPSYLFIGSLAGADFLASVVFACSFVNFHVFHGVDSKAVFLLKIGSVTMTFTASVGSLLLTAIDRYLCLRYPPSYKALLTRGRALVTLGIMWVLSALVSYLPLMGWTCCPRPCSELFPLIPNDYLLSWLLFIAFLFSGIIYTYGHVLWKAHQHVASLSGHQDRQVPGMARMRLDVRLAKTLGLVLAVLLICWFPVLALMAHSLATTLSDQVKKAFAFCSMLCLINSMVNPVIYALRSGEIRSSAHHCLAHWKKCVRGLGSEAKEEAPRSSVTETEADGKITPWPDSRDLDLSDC
Method: (§1) CB1 and CB2 Receptor Affinity
The affinity of the compounds of the invention for cannabinoid CB2 receptors was determined using membrane preparations of human embryonic kidney (HEK) cells in which the human CB2 receptor is transiently transfected using a Semliki Forest Virus system in conjunction with [^3H]-CP-55,940 as radioligand. After incubation of freshly prepared cell membrane preparation with the [^3H]-ligand, with or without addition of compounds of the invention, separation of bound and free ligand was performed by filtration over glass fiber filters. Radioactivity on the filter was measured by scintillation counting.
(§2) The ability of the compounds to displace the radioligand [^3H]-CP-55,940 was measured at a concentration of 10 μM and values provided as [% inhibition @ 10 μM] both for the CB1 and CB2 receptor assay, The lower % inhibition is, the lower the likelihood of side effects based on CB1 or CB2 receptor inhibition is.

ABCA1 protein = assay: Detection of upregulation of ABCA1 protein in cells (ApoA-I binding, high content image analysis); format: cell-based; conditions: THP-1 macrophage cells; for % increase of ABCA1 at 3 μM: compound at 3 μM, 24 hrs; for pEC50: ABCA1 protein increasing efficacy
Method: Detection of Upregulation of ABCA1 Protein in Cells
The ability of compounds of the invention to increase the level of ABCA1 protein is determined in replicate cultures of THP-1 macrophage cells in 96-well microplates. Cells are plated at an initial density of 100,000 cells/well in 100 μl medium and differentiated to adherent macrophages with the addition of PMA (100 nM) for 68 hrs in 10% fetal bovine serum, 3 μl/L of b-mercaptoethanol, RPMI-1640 medium. Then, cells are incubated with RPMI-1640 medium containing 1% FCS, 25 μg/ml acetylated LDL, for 24 hours at 37° C. Following incubation with acetylated LDL, cells are washed twice with 50 μl PBS and incubated with 100 μl of RPMI-1640 medium containing the compound of interest solubilized in DMSO for an additional 24 hrs. The final DMSO concentration in presence of cells is maintained at 0.5%. ApoA-I binding assay using High Content Image Analysis is initiated by replacing with fresh medium, RPMI without Phenol Red, 0.2% BSA containing AlexaFluor®647 labeled ApoA-I for 2 h/37° C./5% CO2. Then, cells are fixed with 4% Formaldehyde in PBS (15 min, RT). Following Nuclei are stained with Hoechst solution (3 μM PBS) and Cytoplasm with Cell Mask Blue (2 μg/ml PBS), 15 min, RT. Finally the stained cells are fixed with a second round of formaldehyde treatment. Fixed stained cells are washed and kept in PBS at 4° C. and can be read immediately until one month after preparation.
The Alexa Fluor 647-labeled Apolipoprotein A-I (20 nM) was prepared as follows: Human recombinant Apolipoprotein A-I (ApoA-I) was exchanged to a buffer of 0.02 M NaHCO3 at pH 8.2 on an NAP desalting column (GE Healthcare) and brought to a concentration to 40 μM (1.13 mg/ml) by adjustment with the same buffer. The ApoA-I was fluorescently labeled by incubation with Alexa Fluor carboxylic acid succimidyl ester (Alexa Fluor 647, Invitrogen A-20006) at a 2:1 molar ratio (Alexa to ApoA-I) for 1 h under shaking at RT. The remaining unconjugated label was removed by buffer exchange to 0.02M NaHCO3 at pH 8.2.
Imaging and data collection were performed on an OPERA confocal microplate imaging reader using a 20× water immersion objective and UV360 or 405 laser to identify the cell nuclei and a 635 laser to identify the fluorescent ApoA-I. Eight fields of view are captured per well. Image capture and analysis was performed with the Acapella software. Background fluorescence detected in control wells without ApoA-I was subtracted.
Using XLfit3 program (ID Business Solutions Ltd. UK), the model 205 for Dose Response One Site is used to calculate the EC50 values. […] Particularly, the compounds of the present invention have EC50 values in a range of 0.1 μM to 3 μm.

human CB1 receptor = biological target: T2, human CB1 receptor (Homo sapiens, UniProt P21554); assay: CB1 receptor affinity ([3H]-CP-55,940 displacement, HEK cell membranes); format: binding; conditions: displacement of [3H]-CP-55,940 at 10 μM
T2 construct: expressed in transfected cells; host or cells: human embryonic kidney (HEK) cells, Semliki Forest Virus system, membrane preparation
T2 sequence (P21554 whole entry): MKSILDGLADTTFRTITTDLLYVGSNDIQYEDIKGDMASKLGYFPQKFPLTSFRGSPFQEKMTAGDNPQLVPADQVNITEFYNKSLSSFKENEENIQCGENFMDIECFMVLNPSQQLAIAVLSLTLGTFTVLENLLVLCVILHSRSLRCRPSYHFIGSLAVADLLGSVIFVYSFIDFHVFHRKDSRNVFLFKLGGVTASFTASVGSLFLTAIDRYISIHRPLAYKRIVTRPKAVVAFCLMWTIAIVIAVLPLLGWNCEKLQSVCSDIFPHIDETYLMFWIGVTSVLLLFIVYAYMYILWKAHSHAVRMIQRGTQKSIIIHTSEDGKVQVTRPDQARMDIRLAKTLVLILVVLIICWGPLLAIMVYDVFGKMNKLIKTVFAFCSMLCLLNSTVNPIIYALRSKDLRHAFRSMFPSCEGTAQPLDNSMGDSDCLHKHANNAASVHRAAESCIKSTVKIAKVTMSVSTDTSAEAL
Method: as §1
The affinity of the compounds of the invention for cannabinoid receptors was determined using membrane preparations of human embryonic kidney (HEK) cells in which the human CB1 receptor is transiently transfected using a Semliki Forest Virus system in conjunction with [3H]-CP-55,940 as radioligand. After incubation of freshly prepared cell membrane preparation with the [^3H]-ligand, with or without addition of compounds of the invention, separation of bound and free ligand was performed by filtration over glass fiber filters. Radioactivity on the filter was measured by scintillation counting.
as §2

| SMILES | CB2 receptor affinity [% inhibition @ 10 μM] (human CB2 receptor) | % increase of ABCA1 at 3 μM (ABCA1 protein) | CB1 receptor affinity [% inhibition @ 10 μM] (human CB1 receptor) | pEC50 (ABCA1 protein) |
| --- | --- | --- | --- | --- |
| N#Cc1ccc(NC(=O)c2cnc(OCC(F)(F)F)c(C3CCCC3)c2)cc1 [Example 25, N-(4-cyano-phenyl)-5-cyclopentyl-6-(2,2,2-trifluoro-ethoxy)-nicotinamide] | 0 % inhibition | >45% @ 3 μM | 27 % inhibition | – |
| O=C(NCc1nc(C(F)(F)F)no1)c1cnc(OCC(F)(F)F)c(C2=CCCCC2)c1 [Example 3, 5-cyclohex-1-enyl-6-(2,2,2-trifluoro-ethoxy)-N-(3-trifluoromethyl-[1,2,4]oxadiazol-5-ylmethyl)-nicotinamide] | −1 % inhibition | >45% @ 3 μM | 42 % inhibition | – |
| O=C(Nc1cncnc1)c1cnc(OCC(F)(F)F)c(C2CCCCC2)c1 [Example 19, 5-cyclohexyl-N-pyrimidin-5-yl-6-(2,2,2-trifluoro-ethoxy)-nicotinamide] | −11 % inhibition | >45% @ 3 μM | 20 % inhibition | – |
| O=C(Nc1cnccn1)c1cnc(OCC(F)(F)F)c(C2CCCC2)c1 [Example 28, 5-cyclopentyl-N-pyrazin-2-yl-6-(2,2,2-trifluoro-ethoxy)-nicotinamide] | 2 % inhibition | >45% @ 3 μM | 12 % inhibition | – |
| O=C(Nc1cccnc1)c1cnc(OCC(F)(F)F)c(C2CCCC2)c1 [Example 8, 5-cyclopentyl-N-pyridin-3-yl-6-(2,2,2-trifluoro-ethoxy)-nicotinamide] | 13 % inhibition | >45% @ 3 μM | 49 % inhibition | – |
| Cc1noc(CNC(=O)c2cnc(OCC(F)(F)F)c(C3CCCCC3)c2)n1 [Example 14, 5-cyclohexyl-N-(3-methyl-[1,2,4]oxadiazol-5-ylmethyl)-6-(2,2,2-trifluoro-ethoxy)-nicotinamide] | 3 % inhibition | >45% @ 3 μM | 34 % inhibition | – |
| O=C(Nc1cccnc1)c1cnc(OCC(F)(F)F)c(C2=CCCC2)c1 [Example 7, 5-cyclopent-1-enyl-N-pyridin-3-yl-6-(2,2,2-trifluoro-ethoxy)-nicotinamide] | 3 % inhibition | >45% @ 3 μM | 11 % inhibition | – |
| COc1cc(CNC(=O)c2cnc(OCC(F)(F)F)c(C3CCCC3)c2)on1 [Example 12, 5-cyclopentyl-N-(3-methoxy-isoxazol-5-ylmethyl)-6-(2,2,2-trifluoro-ethoxy)-nicotinamide] | 12 % inhibition | >45% @ 3 μM | 29 % inhibition | – |
| O=C(Nc1ccnnc1)c1cnc(OCC(F)(F)F)c(C2CCCC2)c1 [Example 26, 5-cyclopentyl-N-pyridazin-4-yl-6-(2,2,2-trifluoro-ethoxy)-nicotinamide] | −2 % inhibition | >45% @ 3 μM | 24 % inhibition | – |
| CCN(C(=O)c1cnc(OCC(F)(F)F)c(C2=CCCCC2)c1)C(C)C [Example 2, 5-cyclohex-1-enyl-N-ethyl-N-isopropyl-6-(2,2,2-trifluoro-ethoxy)-nicotinamide] | 3 % inhibition | >45% @ 3 μM | 37 % inhibition | – |
| O=C(NCc1csc(C2CC2)n1)c1cnc(OCC(F)(F)F)c(C2CCCC2)c1 [Example 18, 5-cyclopentyl-N-(2-cyclopropyl-thiazol-4-ylmethyl)-6-(2,2,2-trifluoro-ethoxy)-nicotinamide] | 14 % inhibition | >45% @ 3 μM | 17 % inhibition | – |
| O=C(Nc1ccncn1)c1cnc(OCC(F)(F)F)c(C2CCCCC2)c1 [Example 21, 5-cyclohexyl-N-pyrimidin-4-yl-6-(2,2,2-trifluoro-ethoxy)-nicotinamide] | −4 % inhibition | >45% @ 3 μM | 38 % inhibition | – |
| O=C(NCc1csc(C2CC2)n1)c1cnc(OCC(F)(F)F)c(C2CCCCC2)c1 [Example 16, 5-cyclohexyl-N-(2-cyclopropyl-thiazol-4-ylmethyl)-6-(2,2,2-trifluoro-ethoxy)-nicotinamide] | 5 % inhibition | >45% @ 3 μM | 25 % inhibition | – |
| O=C(Nc1cncnc1)c1cnc(OCC(F)(F)F)c(C2CCCC2)c1 [Example 22, 5-cyclopentyl-N-pyrimidin-5-yl-6-(2,2,2-trifluoro-ethoxy)-nicotinamide] | −11 % inhibition | >45% @ 3 μM | 12 % inhibition | – |
| O=C(Nc1ccnnc1)c1cnc(OCC(F)(F)F)c(C2CCCCC2)c1 [Example 20, 5-cyclohexyl-N-pyridazin-4-yl-6-(2,2,2-trifluoro-ethoxy)-nicotinamide] | 6 % inhibition | >45% @ 3 μM | 36 % inhibition | – |
| O=C(NCc1nc(C(F)(F)F)no1)c1cnc(OCC(F)(F)F)c(C2=CCOCC2)c1 [Example 5, 5-(3,6-dihydro-2H-pyran-4-yl)-6-(2,2,2-trifluoro-ethoxy)-N-(3-trifluoromethyl-[1,2,4]oxadiazol-5-ylmethyl)-nicotinamide] | −2 % inhibition | – | 15 % inhibition | 5.53 |
| O=C(Nc1cccnc1)c1cnc(OCC(F)(F)F)c(C2CCCCC2)c1 [Example 6, 5-cyclohexyl-N-pyridin-3-yl-6-(2,2,2-trifluoro-ethoxy)-nicotinamide] | 2 % inhibition | – | 17 % inhibition | 5.47 |
